Experimental data from patent US20260297060A1, “COMPOUNDS FOR THE DEGRADATION OF MUTANT BRAF” (C4 THERAPEUTICS, INC., priority 2023, published 2026).
Where two headings read alike, the source gives them in different places.

Columns and labels:
A375 = A375 cell viability assay (Example 15); format: cell-based, human
Description: FIG. 83 is a line graph showing the results of Compound 26, Compound 26-NMe, Compound 141, and Compound 141-NMe in an A375 viability assay. The y-axis is viability in % and the x-axis is concentration (nM). The experiment was conducted as described in Example 15.
This robust degradation activity is surprising in view of the minimal inhibition-based activity of selected compounds. […] However, the degradation deficient versions of Compound 26 and Compound 141 (N-methyl analogs) had minimal effect on cell viability at a concentration of 100 nM (see FIG. 83 and Example 15).

[1] = Pharmacokinetics after 21 days dosing in the efficacy study (plasma, tumor and brain concentrations; plasma AUC at steady state), Example 14; format: in vivo, female BALB/c nude mice; settings: for Concentration in Brain / concentration at 24 h: 24 h; for Concentration in Brain: BQL: below the lower limit of quantitation; for concentration at 4 h / concentration at 24 h / concentration at 0.25 h / concentration at 0.5 h / concentration at 1 h / concentration at 2 h / concentration at 8 h / concentration at 10 h / AUC: mouse, po; for AUC: read-out: Plasma AUC at steady state (Day 21), Average
Description: Agents were tested in the A375 human melanoma xenografts. Compound 26 and Compound 141 were administered to BALB/c nude mice bearing A375 tumors from PG-DO and dosed via PO twice a day (BID) or third a day (TIP) or dosed P daily (QD) from PG-D. Dabrafenib was administered to BALB/c nude mice bearing A375 tumors from PG-D1 and dosed via P daily (QD). Compound 26 was dosed at 1.5 mg/kg (QD), 2 mg/kg (TID), 3 mg/kg (BID), 6 mg/kg (QD) and 10 mg/kg (BID) for 21 days. Compound 141 was dosed at 0.75 mg/kg (BID), 1 mg/kg (TID), 1.5 mg/kg (BID), 3 mg/kg (QD) and 5 mg/kg (BID) for 21 days. Dabrafenib was dosed at 100 mg/kg for 21 days. This study was non-GLP.
The plasma samples were collected at predetermined time points for PK analysis. For non-termination plasma collection: the blood samples were collected into the 1.5 mL Eppendorf tubes containing 3 μL of 0.5 M EDTA-K2. And then the anticoagulant blood samples were centrifuged at 2,500 g at 4° C. for 15 minutes. For termination plasma collection: the mice was euthanized at predetermined time points post the treatment, the blood samples were collected into the 1.5 mL Eppendorf tubes containing 15 μL of 0.5 M EDTA-K2. And then the anticoagulant blood samples were centrifuged at 2,500 g at 4° C. for 15 minutes. The plasma samples were separated into 2 aliquots. The 1st was used for PK analysis, and the 2nd was served as backup.
The tumor samples were collected at predetermined time points for PK and WB analysis. The tumor was dissected out and split into 3 parts. The 1st part was used for PK analysis, the 2nd part was used for WB analysis and the last one was used as backup for the study. The samples were transferred into pre-labeled tubes and quickly froze in liquid nitrogen within 2 minutes after dissection. The samples were stored at −80° C. before analysis.
The brain samples were collected at predetermined time points for PK and potential WB analysis. The brain was dissected out and split into 3 parts (left brain, right brain upper and right brain lower), the left brain was used for PK, the right brain upper was used for WB and the last one was used as the backup for the study. The samples were transferred into pre-labeled tubes and quickly froze in liquid nitrogen within 2 minutes after dissection. The samples were stored at −80° C. before analysis.
The harvested plasma and tumor samples were processed for pharmacokinetics analysis by LC-MS/MS with a concentration range of 1.00-1,000 ng/mL for dabrafenib in plasma and 0.0500-50 ng/mL in tumor and brain homogenate, 5.00-10,000 ng/mL for Compound 141 in plasma and 0.200~200 ng/ml in tumor and brain homogenate. 20.0~20,000 ng/mL for Compound 26 in plasma and 0.5~500 ng/mL for Compound 26 tumor and brain homogenate.
Dabrafenib, Compound 26 and Compound 141 in female BALB/c nude mice plasma (K2-EDTA), tumor and brain homogenate were analyzed by LC-MS/MS (Triple Quad 6500+ Low Mass). Verapamil (5 ng/mL) in acetonitrile: methanol (V: V=95:5) was used as the internal standard for Dabrafenib, Compound 26 and Compound 141 in plasma. Verapamil (0.5 ng/mL) in acetonitrile: methanol (V: V=95:5) was used as the internal standard for Dabrafenib, Compound 26 and Compound 141 in tumor and brain homogenate.
An aliquot of 10 μL unknown sample, calibration standard, quality control, dilute quality control, single blank and double blank samples were added to the 96-well plate. Each sample for Dabrafenib, Compound 26 and Compound 141 in plasma (except the double blank) was quenched with 200 μL IS respectively (double blank sample was quenched with 200 μL ACN: MeOH (V: V=95:5)); each sample for Dabrafenib, Compound 26 and Compound 141 in tumor and brain(except the double blank) was quenched with 100 μL IS respectively (double blank sample was quenched with 100 μL ACN: MeOH (V: V=95:5)); and then the mixture was vortex-mixed for 5 min at 800 rpm and centrifuged for 15 min at 3220 g (4000 rpm), 4° C. […]

[2] = plasma, 1.5 mg/kg p.o. BID x 21 days, mean ± SEM
[3] = plasma, 1.5 mg/kg p.o. BID x 21 days, mean ± SEM, read-out: Concentration in Plasma
[4] = plasma, 2 mg/kg p.o. TID x 21 days, mean ± SEM
[5] = plasma, 2 mg/kg p.o. TID x 21 days, mean ± SEM, read-out: Concentration in Plasma
[6] = plasma, 3 mg/kg p.o. BID x 21 days, mean ± SEM
[7] = plasma, 3 mg/kg p.o. BID x 21 days, mean ± SEM, read-out: Concentration in Plasma
[8] = plasma, 6 mg/kg p.o. QD x 21 days, mean ± SEM
[9] = plasma, 6 mg/kg p.o. QD x 21 days, mean ± SEM, read-out: Concentration in Plasma
[10] = plasma, 10 mg/kg p.o. BID x 21 days, mean ± SEM
[11] = plasma, 10 mg/kg p.o. BID x 21 days, mean ± SEM, read-out: Concentration in Plasma
[12] = tumor, 1.5 mg/kg p.o. BID x 21 days, mean ± SEM, read-out: Concentration in Tumor
[13] = tumor, 2 mg/kg p.o. TID x 21 days, mean ± SEM, read-out: Concentration in Tumor
[14] = tumor, 3 mg/kg p.o. BID x 21 days, mean ± SEM, read-out: Concentration in Tumor
[15] = tumor, 6 mg/kg p.o. QD x 21 days, mean ± SEM, read-out: Concentration in Tumor
[16] = tumor, 10 mg/kg p.o. BID x 21 days, mean ± SEM, read-out: Concentration in Tumor

With `CCN(C)S(=O)(=O)Nc1ccc(F)c(Oc2ccc3ncn([C@H]4COC5(CCN(C6CC7(C6)CN(c6cc8c(cc6F)c(N6CCC(=O)NC6=O)nn8C)C7)CC5)C4)c(=O)c3c2)c1C#N` [Compound 26, (3R)-3-[6-[2-cyano-3-[[ethyl(methyl)sulfamoyl]amino]-6-fluoro-phenoxy]-4-oxo-quinazolin-3-yl]-8-[2-[3-(2,4-dioxohexahydropyrimidin-1-yl)-5-fluoro-1-methyl-indazol-6-yl]-2-azaspiro[3.3]heptan-6-yl]-1-oxa-8-azaspiro[4.5]decane] the “cytotoxicity (in words)” value (A375; A375 cells) was “potent cytotoxic agents”, the “effect on cancer cell viability” value (A375; human, a375 cells, 0.1 µM) was at least 30% and the “Concentration in Brain” value ([1]; 1.5 mg/kg p.o. BID x 21 days) was “BQL”. For the same compound, the “Concentration in Brain” value ([1]; 2 mg/kg p.o. TID x 21 days) was “BQL”, the “Concentration in Brain” value ([1]; 3 mg/kg p.o. BID x 21 days) was “BQL” and the concentration at 4 h ([1]; brain, 1.5 mg/kg p.o. BID x 21 days, mean ± SEM, read-out: Concentration in Brain) was 28 ± 8.47 ng/g. It also gave a concentration at 4 h ([1]; brain, 2 mg/kg p.o. TID x 21 days, mean ± SEM, read-out: Concentration in Brain) of 51.1 ± 11.5 ng/g, a concentration at 4 h ([1]; brain, 3 mg/kg p.o. BID x 21 days, mean ± SEM, read-out: Concentration in Brain) of 66.6 ± 4.67 ng/g and a concentration at 4 h ([1]; brain, 6 mg/kg p.o. QD x 21 days, mean ± SEM, read-out: Concentration in Brain) of 116 ± 8.11 ng/g. The concentration at 24 h ([1]; brain, 6 mg/kg p.o. QD x 21 days, read-out: Concentration in Brain) was 7.19 ng/g, the concentration at 4 h ([1]; brain, 10 mg/kg p.o. BID x 21 days, mean ± SEM, read-out: Concentration in Brain) was 233 ± 48.4 ng/g and the concentration at 24 h ([1]; brain, 10 mg/kg p.o. BID x 21 days, read-out: Concentration in Brain) was 7.79 ng/g. It also gave a concentration at 0.25 h [1, 2] of 1.33 ± 0.12 µg/mL, a concentration at 0.5 h [1, 2] of 1.91 ± 0.332 µg/mL and a concentration at 1 h [1, 2] of 3.49 ± 0.364 µg/mL. The concentration at 2 h [1, 2] was 3.14 ± 0.671 µg/mL, the concentration at 4 h [1, 3] was 2.17 ± 0.716 µg/mL and the concentration at 8 h [1, 2] was 0.912 ± 0.118 µg/mL. It also gave a concentration at 10 h [1, 2] of 0.694 ± 0.0799 µg/mL, a concentration at 24 h [1, 3] of 0.0323 µg/mL and an AUC ([1]; plasma, 1.5 mg/kg p.o. BID × 21 days) of 37.4 µg·h/mL. For the same compound, the concentration at 0.25 h [1, 4] was 2.63 ± 0.273 µg/mL, the concentration at 0.5 h [1, 4] was 5.75 ± 1.1 µg/mL and the concentration at 1 h [1, 4] was 5.42 ± 0.571 µg/mL. For the same compound, the concentration at 2 h [1, 4] was 5.11 ± 0.286 µg/mL, the concentration at 4 h [1, 5] was 3.79 ± 0.666 µg/mL and the concentration at 8 h [1, 4] was 2.06 ± 0.15 µg/mL. For the same compound, the concentration at 10 h [1, 4] was 1.55 ± 0.0371 µg/mL, the concentration at 24 h [1, 5] was 0.106 ± 0.0177 µg/mL and the AUC ([1]; plasma, 2 mg/kg p.o. TID × 21 days) was 88.3 µg·h/mL. It also gave a concentration at 0.25 h [1, 6] of 2.49 ± 0.107 µg/mL, a concentration at 0.5 h [1, 6] of 4.86 ± 0.801 µg/mL and a concentration at 1 h [1, 6] of 5.83 ± 0.591 µg/mL. It also gave a concentration at 2 h [1, 6] of 6.75 ± 0.675 µg/mL, a concentration at 4 h [1, 7] of 3.97 ± 0.452 µg/mL and a concentration at 8 h [1, 6] of 3.03 ± 0.252 µg/mL. For the same compound, the concentration at 10 h [1, 6] was 2.47 ± 0.266 µg/mL, the concentration at 24 h [1, 7] was 0.116 ± 0.0024 µg/mL and the AUC ([1]; plasma, 3 mg/kg p.o. BID × 21 days) was 87.9 µg·h/mL. It also gave a concentration at 0.25 h [1, 8] of 4.44 ± 0.284 µg/mL, a concentration at 0.5 h [1, 8] of 9.99 ± 1.16 µg/mL and a concentration at 1 h [1, 8] of 12.9 ± 0.669 µg/mL. For the same compound, the concentration at 2 h [1, 8] was 14.6 ± 0.723 µg/mL, the concentration at 4 h [1, 9] was 8.71 ± 1.88 µg/mL and the concentration at 8 h [1, 8] was 8.22 ± 0.421 µg/mL. It also gave a concentration at 10 h [1, 8] of 6.2 ± 0.192 µg/mL, a concentration at 24 h [1, 9] of 0.156 ± 0.0109 µg/mL and an AUC ([1]; plasma, 6 mg/kg p.o. QD × 21 days) of 115 µg·h/mL. It also gave a concentration at 0.25 h [1, 10] of 8.79 ± 0.316 µg/mL, a concentration at 0.5 h [1, 10] of 19.3 ± 2.22 µg/mL and a concentration at 1 h [1, 10] of 20.2 ± 2.24 µg/mL. The concentration at 2 h [1, 10] was 21.3 ± 1.56 µg/mL, the concentration at 4 h [1, 11] was 15.1 ± 2.21 µg/mL and the concentration at 8 h [1, 10] was 10.9 ± 0.379 µg/mL. For the same compound, the concentration at 10 h [1, 10] was 8.66 ± 0.186 µg/mL, the concentration at 24 h [1, 11] was 0.273 ± 0.0248 µg/mL and the AUC ([1]; plasma, 10 mg/kg p.o. BID × 21 days) was 312 µg·h/mL. For the same compound, the concentration at 4 h [1, 12] was 392 ± 150 ng/g, the concentration at 24 h [1, 12] was 11.8 ± 1.59 ng/g and the concentration at 4 h [1, 13] was 930 ± 57.3 ng/g. It also gave a concentration at 24 h [1, 13] of 80.7 ± 25.2 ng/g, a concentration at 4 h [1, 14] of 1430 ± 159 ng/g and a concentration at 24 h [1, 14] of 54.3 ± 8.91 ng/g. It also gave a concentration at 4 h [1, 15] of 2910 ± 459 ng/g, a concentration at 24 h [1, 15] of 338 ± 169 ng/g and a concentration at 4 h [1, 16] of 4250 ± 313 ng/g. For the same compound, the concentration at 24 h [1, 16] was 663 ± 153 ng/g.
